According to US20180289678A1, “PHARMACEUTICAL COMPOSITION, PHARMACEUTICAL DOSAGE FORM, PROCESS FOR THEIR PREPARATION, METHODS FOR TREATING AND USES THEREOF” (Boehringer Ingelheim International GmbH, priority 2009, published 2018):
Read-outs that look alike come from different tables or passages of the source.

Tests used:
[1] = Pharmacokinetic profile in fasting humans, ranges over Studies .1 to .5; assay type: in vivo; settings: human, plasma, oral
Procedure: (§1) 5. Pharmacokinetic Parameters
(§2) The pharmacokinetic parameters of pharmaceutical compositions and pharmaceutical dosage forms are assessed in healthy volunteer and patient populations. In the studies shown below, the participants fasted on the day of sampling, unless as otherwise stated (see for example study .3). The active substance in the studies below is the compound (I.9), preferably in the crystalline form (I.9X), and the dose of active ingredient is indicated in mg.
(§3) For the quantification of plasma concentrations of the active ingredient, 2.7 mL of blood was collected and transferred into an EDTA (ethylendiaminetetraacetic acid)-anticoagulant blood drawing tube. The EDTA-anticoagulated blood samples were centrifuged immediately after collection. Centrifugation lasted for about 10 minutes (at about 2,000×gf to 4,000×gf) at 4-8° C. or within 30 minutes while stored on ice. Concentrations of active substance in EDTA human plasma samples were quantitated using a HPLC/MS/MS method. The assay method comprised a solid phase supported liquid-liquid extraction of human plasma coupled with HPLC/MS/MS determination of the extracted samples. The HPLC/MS/MS assay was validated for the range of 1.11 to 1110 nM in human plasma.
Study .1: Single dose study in a healthy volunteer population of N=72. Healthy volunteers were administered tablets as described in Example 10 (section Examples of formulations).
Study .2: Multiple rising dose trial in a diabetic patient population of N=48, once daily administration for 8 days. Patients were administered tablets as described in Example 10 (section Examples of formulations).
Study .3: Single dose, cross-over, food effect study in a healthy volunteer population of N=14. Healthy volunteers were administered tablets as described in Example 10 (section Examples of formulations).
(§4) Study .4: 4-week treatment of a diabetic patient population of N=78, once daily administration for 4 weeks. Patients were administered tablets as described in Example 10 (section Examples of formulations).
Study .5: Single dose study in a healthy volunteer population of N=48 (Japanese volunteers). Healthy volunteers were administered tablets as described in Example 11 (section Examples of formulations).
(§5) AUC0-inf:area under the concentration-time curve of the analyte in plasma over the time interval from 0 extrapolated to infinity.
(§6) Cmax: maximum concentration of the analyte in plasma.
(§7) Tmax: time from dosing to maximum concentration.
(§8) AUCT,SS:area under the concentration-time curve of the analyte in plasma over the time interval from 0 to 24 h at steady-state.
(§9) Cmax,ss:maximum concentration of the analyte in plasma at steady state over a uniform dosing interval.
(§10) tmax,ss:time from dosing to maximum concentration at steady state.

[2] = Study .4: 4-week treatment of diabetic patients, once daily, pharmacokinetic parameters; assay type: in vivo, human; settings: Study .4, fasted
Procedure: as §1, §2, §3, §4, §5, §6, §7, §8, §9, §10

OC[C@H]1O[C@@H](c2ccc(Cl)c(Cc3ccc(O[C@H]4CCOC4)cc3)c2)[C@H](O)[C@@H](O)[C@@H]1O [Compound (I.9), 1-chloro-4-(β-D-glucopyranos-1-yl)-2-[4-((S)-tetrahydrofuran-3-yloxy)-benzyl]-benzene]
AUC ([1]; 2.5 mg, dose of 2.5 mg, read-out: AUC): 0.283 to 0.677 µM·h | Cmax ([1]; 2.5 mg, dose of 2.5 mg, read-out: Cmax): 40.3 to 96.3 nM | AUC ([1]; 2.5 mg, dose of 2.5 mg, read-out: geometric mean AUC): 0.394 to 0.468 µM·h | Cmax ([1]; 2.5 mg, dose of 2.5 mg, read-out: geometric mean Cmax): 52.9 to 66.6 nM | AUC ([1]; 2.5 mg, multiple doses of 2.5 mg, read-out: AUCτ,ss): 0.283 to 0.677 µM·h | Cmax ([1]; 2.5 mg, multiple doses of 2.5 mg, read-out: Cmax,ss): 40.3 to 96.3 nM | AUC(0-inf) ([1]; 2.5 mg, single dose of 2.5 mg, read-out: AUC0-inf): 0.326 to 0.631 µM·h | Cmax ([1]; 2.5 mg, single dose of 2.5 mg, read-out: Cmax): 42.8 to 81.2 nM | AUC(0-inf) ([1]; 2.5 mg, single dose of 2.5 mg, read-out: geometric mean AUC0-inf): 0.394 to 0.468 µM·h | Cmax ([1]; 2.5 mg, single dose of 2.5 mg, read-out: geometric mean Cmax): 52.9 to 61.3 nM | AUC ([1]; 5 mg, dose of 5.0 mg, read-out: AUC): 1 to 1.31 µM·h | Cmax ([1]; 5 mg, dose of 5.0 mg, read-out: Cmax): 123 to 230 nM | AUC(0-inf) ([1]; 5 mg, single dose of 5.0 mg, read-out: AUC0-inf): 1 to 1.31 µM·h | Cmax ([1]; 5 mg, single dose of 5.0 mg, read-out: Cmax): 123 to 230 nM | AUC ([1]; 10 mg, dose of 10.0 mg, read-out: AUC): 1.17 to 3.19 µM·h | Cmax ([1]; 10 mg, dose of 10.0 mg, read-out: Cmax): 143 to 796 nM | AUC ([1]; 10 mg, dose of 10.0 mg, read-out: geometric mean AUC): 1.69 to 2.66 µM·h | Cmax ([1]; 10 mg, dose of 10.0 mg, read-out: geometric mean Cmax): 221 to 372 nM | AUC ([1]; 10 mg, multiple doses of 10.0 mg, read-out: AUCτ,ss): 1.35 to 2.6 µM·h | Cmax ([1]; 10 mg, multiple doses of 10.0 mg, read-out: Cmax,ss): 166 to 479 nM | AUC ([1]; 10 mg, multiple doses of 10.0 mg, read-out: geometric mean AUCτ,ss): 1.85 to 2 µM·h | Cmax ([1]; 10 mg, multiple doses of 10.0 mg, read-out: geometric mean Cmax,ss): 252 to 272 nM | AUC(0-inf) ([1]; 10 mg, single dose of 10.0 mg, read-out: AUC0-inf): 1.17 to 3.19 µM·h | Cmax ([1]; 10 mg, single dose of 10.0 mg, read-out: Cmax): 143 to 796 nM | AUC(0-inf) ([1]; 10 mg, single dose of 10.0 mg, read-out: geometric mean AUC0-inf): 1.69 to 2.66 µM·h | Cmax ([1]; 10 mg, single dose of 10.0 mg, read-out: geometric mean Cmax): 221 to 372 nM | AUC ([1]; 25 mg, dose of 25.0 mg, read-out: AUC): 2.66 to 7.64 µM·h | Cmax ([1]; 25 mg, dose of 25.0 mg, read-out: Cmax): 334 to 1030 nM | AUC ([1]; 25 mg, dose of 25.0 mg, read-out: geometric mean AUC): 3.75 to 6.13 µM·h | Cmax ([1]; 25 mg, dose of 25.0 mg, read-out: geometric mean Cmax): 490 to 709 nM | AUC ([1]; 25 mg, multiple doses of 25.0 mg, read-out: AUCτ,ss): 2.79 to 7.64 µM·h | Cmax ([1]; 25 mg, multiple doses of 25.0 mg, read-out: Cmax,ss): 443 to 907 nM | AUC ([1]; 25 mg, multiple doses of 25.0 mg, read-out: geometric mean AUCτ,ss): 4.64 to 4.89 µM·h | Cmax ([1]; 25 mg, multiple doses of 25.0 mg, read-out: geometric mean Cmax,ss): 622 to 676 nM | AUC(0-inf) ([1]; 25 mg, single dose of 25.0 mg, read-out: AUC0-inf): 2.66 to 7.17 µM·h | Cmax ([1]; 25 mg, single dose of 25.0 mg, read-out: Cmax): 334 to 1030 nM | AUC(0-inf) ([1]; 25 mg, single dose of 25.0 mg, read-out: geometric mean AUC0-inf): 3.75 to 6.13 µM·h | Cmax ([1]; 25 mg, single dose of 25.0 mg, read-out: geometric mean Cmax): 490 to 709 nM | AUC ([1]; 50 mg, dose of 50.0 mg, read-out: AUC): 6.45 to 14.1 µM·h | Cmax ([1]; 50 mg, dose of 50.0 mg, read-out: Cmax): 722 to 2020 nM | AUC ([1]; 50 mg, dose of 50.0 mg, read-out: geometric mean AUC): 8.31 to 8.46 µM·h | Cmax ([1]; 50 mg, dose of 50.0 mg, read-out: geometric mean Cmax): 1080 to 1140 nM | AUC(0-inf) ([1]; 50 mg, single dose of 50.0 mg, read-out: AUC0-inf): 6.45 to 14.1 µM·h | Cmax ([1]; 50 mg, single dose of 50.0 mg, read-out: Cmax): 722 to 2020 nM | AUC(0-inf) ([1]; 50 mg, single dose of 50.0 mg, read-out: geometric mean AUC0-inf): 8.31 to 8.46 µM·h | Cmax ([1]; 50 mg, single dose of 50.0 mg, read-out: geometric mean Cmax): 1080 to 1140 nM | AUCτ,ss Max ([2]; 10 mg once daily, steady state): 2.6 µM·h | AUCτ,ss Min ([2]; 10 mg once daily, steady state): 1.35 µM·h | tmax,ss Max ([2]; 10 mg once daily, steady state): 4.00 h | tmax,ss Min ([2]; 10 mg once daily, steady state): 0.983 h | Cmax ([2]; 10 mg once daily, steady state, read-out: Cmax,ss Max): 367 nM | AUC0-inf Max ([2]; 10 mg single dose): 2.41 µM·h | AUC0-inf Min ([2]; 10 mg single dose): 1.39 µM·h | AUC0-inf,norm Max ([2]; 10 mg single dose): 241 nmol·h/L/mg | AUC0-inf,norm Median ([2]; 10 mg single dose): 173 nmol·h/L/mg | AUC0-inf,norm Min ([2]; 10 mg single dose): 139 nmol·h/L/mg | AUC0-inf,norm gMean ([2]; 10 mg single dose): 172 nmol·h/L/mg | tmax Max ([2]; 10 mg single dose): 2.50 h | tmax Min ([2]; 10 mg single dose): 1.00 h
